We go through 48 compounds from ChEMBL document CHEMBL1125132, “Synthesis and inhibitory potency of peptides corresponding to the subunit 2 C-terminal region of herpes virus ribonucleotide reductases” (J Med Chem, 1990).

pIC50: −log10 of the molar value. Numbered stars: 1 amine (or outer) side, 2 acyl side, 3 side chain; on linkers, the order of the positions; unused ones are H or OH. Square brackets hold non-standard residues; d marks the D form. Peptide text beside a SMILES is read from it. * marks the point of attachment. ξ: configuration not given here. X1 = CC(C)[C@@H](C(=O)[*:2])N(CCCCCCCCO[*:3])[*:1]; Desaminotyrosyl = O=C(CCc1ccc(O)cc1)*; Thr(3ξ) = CC(O)[C@H](N)C(=O)O

The target in test [1] is T1, Ribonucleoside-diphosphate reductase large subunit (Herpes simplex virus (type 1 / strain 17), UniProt P08543).
T1 sequence (P08543 whole entry): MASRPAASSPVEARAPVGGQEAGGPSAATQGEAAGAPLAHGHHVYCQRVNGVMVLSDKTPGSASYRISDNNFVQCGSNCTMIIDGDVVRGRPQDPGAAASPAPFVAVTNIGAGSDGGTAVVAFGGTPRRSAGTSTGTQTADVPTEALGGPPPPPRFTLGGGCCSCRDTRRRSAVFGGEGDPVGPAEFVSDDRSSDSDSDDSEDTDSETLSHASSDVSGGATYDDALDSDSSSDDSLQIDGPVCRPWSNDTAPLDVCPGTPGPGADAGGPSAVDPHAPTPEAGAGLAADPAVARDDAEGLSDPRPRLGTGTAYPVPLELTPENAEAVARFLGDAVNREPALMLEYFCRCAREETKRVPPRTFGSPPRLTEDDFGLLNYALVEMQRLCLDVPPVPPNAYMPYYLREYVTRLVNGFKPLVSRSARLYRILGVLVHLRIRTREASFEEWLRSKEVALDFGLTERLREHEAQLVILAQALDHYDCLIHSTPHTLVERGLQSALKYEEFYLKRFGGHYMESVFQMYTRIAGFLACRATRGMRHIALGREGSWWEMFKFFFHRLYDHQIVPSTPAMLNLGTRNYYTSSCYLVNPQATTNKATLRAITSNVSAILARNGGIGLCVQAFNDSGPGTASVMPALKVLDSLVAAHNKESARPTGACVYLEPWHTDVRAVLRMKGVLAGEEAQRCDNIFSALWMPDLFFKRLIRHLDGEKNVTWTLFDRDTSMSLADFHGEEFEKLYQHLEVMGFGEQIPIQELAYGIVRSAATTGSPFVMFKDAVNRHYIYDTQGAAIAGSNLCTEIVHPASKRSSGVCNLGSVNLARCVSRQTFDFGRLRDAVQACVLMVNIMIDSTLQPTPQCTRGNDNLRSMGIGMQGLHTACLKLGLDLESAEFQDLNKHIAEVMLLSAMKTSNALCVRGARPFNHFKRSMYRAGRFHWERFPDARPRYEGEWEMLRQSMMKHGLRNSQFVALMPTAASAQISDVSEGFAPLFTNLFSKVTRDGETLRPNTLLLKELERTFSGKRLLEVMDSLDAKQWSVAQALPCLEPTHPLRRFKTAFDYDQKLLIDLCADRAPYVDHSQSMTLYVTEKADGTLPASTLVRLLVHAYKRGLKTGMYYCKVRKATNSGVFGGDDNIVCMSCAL
The test is described as follows: Inhibitory activity against HSV-1 Ribonucleoside diphosphate reductase was determined. The arrangement: species or system Human alphaherpesvirus 1.

Test [2] addresses T1, Ribonucleoside-diphosphate reductase large subunit. The test is described as follows: Inhibitory activity was determined against HSV-1 Ribonucleoside diphosphate reductase. The arrangement: species or system Human alphaherpesvirus 1.
Test [3] in a line: Relative inhibition compared to HSV-R2-(329-337) was determined; Inactive at 2 mM.
A short description of test [4]: Relative inhibition compared to HSV-R2-(329-337) was determined; Inactive at 1 mM.

In test [1], `COc1ccc(C[C@H](NC(C)=O)C(=O)N[C@@H](C)C(=O)NCC(=O)N[C@@H](C)C(=O)N[C@H](C(=O)N[C@H](C(=O)N[C@@H](CC(N)=O)C(=O)N[C@@H](CC(=O)O)C(=O)N[C@@H](CC(C)C)C(=O)O)C(C)C)C(C)C)cc1` gave a pIC50 of 4.22. Same read-out and setting: as for `COc1ccc(C[C@H](N)C(=O)N[C@@H](C)C(=O)NCC(=O)N[C@@H](C)C(=O)N[C@H](C(=O)N[C@H](C(=O)N[C@@H](CC(N)=O)C(=O)N[C@@H](CC(=O)O)C(=O)N[C@@H](CC(C)C)C(=O)O)C(C)C)C(C)C)cc1`, the figure is 4.22. In test [1], `CC(C)C[C@H](NC(=O)[C@H](CC(=O)O)NC(=O)[C@H](CC(N)=O)NC(=O)[C@@H](NC(=O)[C@@H](NC(=O)[C@H](C)NC(=O)CNC(=O)[C@H](C)NC(=O)[C@@H](N)Cc1ccc(O)cc1)C(C)C)C(C)C)C(N)=O` showed a pIC50 of 4.22. In the case of `CSCC[C@H](NC(=O)[C@@H](NC(=O)[C@@H](N)Cc1ccc(O)cc1)[C@@H](C)O)C(=O)N[C@@H](CC(C)C)C(=O)N[C@H](C(=O)N[C@H](C(=O)N[C@@H](CC(=O)O)C(=O)N[C@@H](CC(=O)O)C(=O)N[C@@H](CC(C)C)C(=O)O)C(C)C)C(C)C`, the figures for the pIC50 in test [2] and in test [1] were 3.96 and 4.44, respectively. With `CC(C)C[C@H](NC(=O)[C@H](CC(=O)O)NC(=O)[C@H](CC(N)=O)NC(=O)[C@@H](NC(=O)[C@@H](NC(=O)[C@H](C)NC(=O)CNC(=O)[C@H](C)NC(=O)[C@H](Cc1ccc(O)cc1)NC(=O)[C@H](CO)NC(=O)[C@@H](NC(=O)[C@H](CO)NC(=O)[C@H](CCCN=C(N)N)NC(=O)[C@H](CS)NC(=O)[C@H](CCC(=O)O)NC(=O)[C@H](Cc1ccccc1)NC(=O)[C@H](Cc1ccccc1)NC(=O)[C@H](CC(=O)O)NC(=O)[C@@H](N)[C@@H](C)O)[C@@H](C)O)C(C)C)C(C)C)C(=O)O`, the pIC50 in test [2] is 4.82; in test [1], 4.26.

As to `CC(=O)N[C@H](C(=O)N[C@H](C(=O)N[C@@H](CC(N)=O)C(=O)N[C@@H](CC(=O)O)C(=O)N[C@@H](CC(C)C)C(=O)O)C(C)C)C(C)C`, the figures for the pIC50 in test [2] and in test [1] were 3.40 and 4.22, respectively. Compound `CC(=O)N[C@H](Cc1ccc(O)cc1)C(=O)N[C@@H](C)C(=O)NCC(=O)N[C@@H](C)C(=O)N[C@H](C(=O)N[C@H](C(=O)N[C@@H](CC(N)=O)C(=O)N[C@@H](CC(=O)O)C(=O)N[C@@H](CC(C)C)C(=O)O)C(C)C)C(C)C` showed a pIC50 in test [1] of 4.22. `CC(C)C[C@H](NC(=O)[C@H](CC(=O)O)NC(=O)[C@H](CC(N)=O)NC(=O)[C@@H](NC(=O)[C@@H](NC(=O)[C@H](C)NC(=O)CNC(=O)[C@H](C)NC(=O)[C@H](Cc1ccc(O)cc1)NC(=O)CCCCCCCN)C(C)C)C(C)C)C(=O)O`: the pIC50 was 4.92 in test [2] and 4.36 in test [1]. Consider `CC(=O)N[C@@H](Cc1ccc(O)cc1)C(=O)N[C@H](C)C(=O)NCC(=O)N[C@@H](C)C(=O)N[C@H](C(=O)N[C@H](C(=O)N[C@@H](CC(N)=O)C(=O)N[C@@H](CC(=O)O)C(=O)N[C@@H](CC(C)C)C(=O)O)C(C)C)C(C)C`, for which the pIC50 in test [1] is 4.22. On the same count and under the same terms, in the case of `CC(=O)N[C@@H](Cc1ccc(O)cc1)C(=O)N[C@@H](C)C(=O)NCC(=O)N[C@@H](C)C(=O)N[C@H](C(=O)N[C@H](C(=O)N[C@@H](CC(N)=O)C(=O)N[C@@H](CC(=O)O)C(=O)N[C@@H](CC(C)C)C(N)=O)C(C)C)C(C)C` it was 4.22; in that of `CC(=O)N[C@@H](Cc1ccc(O)cc1)C(=O)N[C@@H](C)C(=O)NCC(=O)N[C@@H](C)C(=O)N[C@H](C(=O)N[C@H](C(=O)N[C@@H](CC(N)=O)C(=O)N[C@@H](CC(=O)O)C(=O)N[C@@H](CC(C)C)C(=O)O)C(C)C)C(C)C`, 4.22.

In the case of `CC(C)C[C@H](NC(=O)[C@H](CC(=O)O)NC(=O)[C@H](CC(N)=O)NC(=O)[C@@H](NC(=O)[C@@H](NC(=O)[C@H](C)NC(=O)CNC(=O)[C@H](C)NC(=O)CCc1ccc(O)cc1)C(C)C)C(C)C)C(=O)O` (Desaminotyrosyl-AGAVVNDL-OH), the figures for the pIC50 in test [2] and in test [1] were 4.48 and 4.22, respectively.

Turning to `CC[C@H](C)[C@H](NC(=O)[C@@H](NC(=O)CNC(=O)[C@H](C)NC(=O)CCc1ccc(O)cc1)C(C)O)C(=O)N[C@@H](CC(N)=O)C(=O)N[C@@H](CC(=O)O)C(=O)N[C@@H](CC(C)C)C(=O)O` (some centres not stated) (Desaminotyrosyl-AG[Thr(3ξ)]INDL-OH), the pIC50 in test [2] and in test [1] was 4.89 in each case. In test [3], `CC(C)C[C@H](NC(=O)[C@H](CC(=O)O)NC(=O)[C@@H](N)CC(N)=O)C(=O)O` (H-Asn-Asp-Leu-OH) registered a Relative inhibition of 0%. Still for that read-out and setting: in the case of `CC(C)C[C@H](NC(=O)[C@H](CC(=O)O)NC(=O)[C@H](CC(N)=O)NC(=O)[C@@H](N)C(C)C)C(=O)O` (H-VNDL-OH) it was 0%.

In the case of `CC(C)C[C@H](NC(=O)[C@H](CC(=O)O)NC(=O)[C@H](CC(N)=O)NC(=O)[C@@H](NC(=O)[C@@H](NCCCCCCCCOC(=O)[C@@H](N)Cc1ccc(O)cc1)C(C)C)C(C)C)C(=O)O` (H-[X1](Tyr)VNDL-OH), the negative logarithm of the IC50 (pIC50) in test [2] and in test [1] was 4.20 throughout. Regarding Ac-YAGVVNDL-OH, the pIC50 in test [1] is 4.22. Same read-out and setting: in the case of Ac-YGAVVNDL-OH it was 4.22.

Regarding H-AAGAVVNDL-OH, the pIC50 in test [2] and in test [1] was 3.55 in each case. For H-AGAVVNDL-OH, the pIC50 in test [2] is 3.55; in test [1], 4.44. For H-AVVNDL-OH the same measures were 3.72 and 3.72. For H-ECRSTSYAGAVVNDL-OH the same measures were 4.38 and 4.22. On the same counts, the results for H-FAGAVVNDL-OH are 4.05 and 4.26. Take H-GAVVNDL-OH: the pIC50 in test [2] and in test [1] was 3.65 in each case.

With H-HAGAVVNDL-OH, the pIC50 in test [2] was 3.49; in test [1], 4.26.

H-KYAGAVVNDL-OH had a pIC50 in test [1] of 4.26. H-LAGAVVNDL-OH: the pIC50 in test [2] and in test [1] was 3.68 in each case.

Turning to H-STSYAGAVVNDL-OH, the pIC50 in test [2] is 4.54; in test [1], 4.22. On to H-YAGAAVNDL-OH, for which, in test [3], the Relative inhibition was determined as 0%. Regarding H-YAGAVANDL-OH, the pIC50 is 3.12 in test [2] and 4.22 in test [1]. For H-YAGAVINDL-OH the same measures were 4.48 and 4.31.

H-YAGAVV-OH gave a Relative inhibition in test [3] of 0%.

The compound H-YAGAVVADL-OH came in with a Relative inhibition in test [4] of 0%. H-YAGAVVN-OH: the Relative inhibition in test [3] worked out at 0%. In the case of H-YAGAVVNAL-OH, in test [4], the Relative inhibition was found to be 0%. Take H-YAGAVVND-OH: in test [3], the Relative inhibition came to 0%. On to H-YAGAVVNDA-OH, for which the Relative inhibition in test [4] worked out at 0%. As for H-YAGAVVNDF-OH, the Relative inhibition in test [4] was found to be 0%. Turning to H-YAGAVVNDI-OH, the pIC50 was 3.82 in test [2] and 4.26 in test [1]. On the same counts, the results for H-YAGAVVNDLK-OH are 3.34 and 4.26. For H-YAGAVVNDV-OH the same measures were 3.07 and 4.26. As for H-YAGAVVNDY-OH, in test [4], the Relative inhibition was found to be 0%. In turn, H-YAGPVVNDL-OH had a pIC50 in test [1] of 4.36. Same read-out and setting: in the case of H-YAGTVINDL-OH it was 4.22. Turning to H-YAGTVVNDL-OH, the negative-log IC50 (pIC50) was 4.54 in test [2] and 4.36 in test [1]. On the same counts, the results for H-YAPAVVNDL-OH are 4.43 and 4.36. H-YAVVNDL-OH gave a pIC50 in test [1] of 4.22. Turning to H-YGAVVNDL-OH, the pIC50 in test [2] is 3.48; in test [1], 4.22.

The term pIC50 denotes the negative decadic logarithm of the IC50, by convention in mol/L. Low readings indicate a large IC50, high ones a small IC50.
